This assay has as its system HCT116. The conditions noted are these: 72 h. An outline of the steps:
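HCT116 cells went into 1536-well plates at 250 per well. CellTiter-Glo luminescence was expressed relative to vehicle (0%) and positive control (-100%) and then pattern-corrected. Both IC50 and maximal efficacy were taken from four-parameter Hill fits.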

Results on 19 compounds are retold here after the supplement of paper PMC12137928.

Structures are written as SMILES. Where a name gives a salt, the structure may show the parent alone.

For `CC(C)(C)NC(=O)[C@H]1CC[C@H]2[C@@H]3CC[C@H]4NC(=O)C=C[C@]4(C)[C@H]3CC[C@]12C` [Finasteride], the IC50 cell viability reads like this: (ICRF193 0 nM) more than 45.8 µM; (ICRF193 200 nM) more than 45.8 µM.
In the case of `N#Cc1nn(-c2c(Cl)cc(C(F)(F)F)cc2Cl)c(N)c1[S+]([O-])C(F)(F)F` (stereo not drawn) [Fipronil], the IC50 cell viability reads like this: (ICRF193 0 nM) more than 45.8 µM; (ICRF193 200 nM) more than 45.8 µM.
For `Cc1cc2nc3c(=O)[nH]c(=O)nc-3n(C[C@H](O)[C@H](O)[C@H](O)COP(=O)(O)OP(=O)(O)OC[C@H]3O[C@@H](n4cnc5c(N)ncnc54)[C@H](O)[C@@H]3O)c2cc1C` [Flavin adenine dinucleotide disodium salt hydrate], the IC50 cell viability is more than 45.8 µM (ICRF193 0 nM) and more than 45.8 µM (ICRF193 200 nM).
Consider `Cc1c(-c2ccccc2)oc2c(C(=O)OCCN3CCCCC3)cccc2c1=O` [Flavoxate hydrochloride], for which the IC50 cell viability reads like this: (ICRF193 0 nM) more than 45.8 µM; (ICRF193 200 nM) more than 45.8 µM.
As for `O=C(NCC1CCCCN1)c1cc(OCC(F)(F)F)ccc1OCC(F)(F)F` (stereo not drawn) [Flecainide], the IC50 cell viability (ICRF193 0 nM) is more than 45.8 µM and the IC50 cell viability (ICRF193 200 nM) is more than 45.8 µM.
In the case of `CN1CCN(c2c(F)cc3c(=O)c(C(=O)O)cn(CCF)c3c2F)CC1` [Fleroxacin], the IC50 cell viability reads like this: (ICRF193 0 nM) more than 45.8 µM; (ICRF193 200 nM) more than 45.8 µM.
For `O=C(OCC(O)CO)c1ccccc1Nc1ccnc2c(C(F)(F)F)cccc12` (stereo not drawn) [Floctafenine], the IC50 cell viability is more than 45.8 µM (ICRF193 0 nM) and more than 45.8 µM (ICRF193 200 nM).
For the compound `CO[C@@]1(NC(=O)CSC(F)F)C(=O)N2C(C(=O)O)=C(CSc3nnnn3CCO)CO[C@@H]21` [Flomoxef], the IC50 cell viability reads like this: (ICRF193 0 nM) more than 45.8 µM; (ICRF193 200 nM) more than 45.8 µM.
In the case of `CCC(=O)c1c(O)cc(O)cc1O` [Flopropione], the IC50 cell viability is, setting by setting: (ICRF193 0 nM) more than 45.8 µM; (ICRF193 200 nM) more than 45.8 µM.
Turning to `CS(=O)(=O)c1ccc([C@@H](O)[C@@H](CF)NC(=O)C(Cl)Cl)cc1` [Florfenicol], the IC50 cell viability (ICRF193 0 nM) is more than 45.8 µM and the IC50 cell viability (ICRF193 200 nM) was more than 45.8 µM.
As to `Cc1onc(-c2c(F)cccc2Cl)c1C(=O)N[C@@H]1C(=O)N2[C@@H]1SC(C)(C)[C@@H]2C(=O)O` [Flucloxacillin sodium], the IC50 cell viability runs as follows: (ICRF193 0 nM) more than 45.8 µM; (ICRF193 200 nM) more than 45.8 µM.
Regarding `OC(Cn1cncn1)(Cn1cncn1)c1ccc(F)cc1F` [Fluconazole], the IC50 cell viability runs as follows: (ICRF193 0 nM) more than 45.8 µM; (ICRF193 200 nM) more than 45.8 µM.
Turning to `Nc1nc(=O)[nH]cc1F` [Flucytosine], the IC50 cell viability was more than 45.8 µM (ICRF193 0 nM) and more than 45.8 µM (ICRF193 200 nM).
The compound `Nc1nc(F)nc2c1ncn2[C@@H]1O[C@H](COP(=O)(O)O)[C@@H](O)[C@@H]1O` [Fludarabine phosphate] came in with an IC50 cell viability (ICRF193 0 nM) of more than 45.8 µM and an IC50 cell viability (ICRF193 200 nM) of more than 45.8 µM.
Turning to `C[C@]12CCC(=O)C=C1CC[C@H]1[C@@H]3CC[C@](O)(C(=O)CO)[C@@]3(C)C[C@H](O)[C@@]12F` [Fludrocortisone], the IC50 cell viability was more than 45.8 µM (ICRF193 0 nM) and more than 45.8 µM (ICRF193 200 nM).
As for `O=C(O)c1ccccc1Nc1cccc(C(F)(F)F)c1` [Flufenamic acid], the IC50 cell viability is more than 45.8 µM (ICRF193 0 nM) and more than 45.8 µM (ICRF193 200 nM).
As to `CCOC(=O)c1ncn2c1CN(C)C(=O)c1cc(F)ccc1-2` [Flumazenil], the IC50 cell viability by setting is: (ICRF193 0 nM) more than 45.8 µM; (ICRF193 200 nM) more than 45.8 µM.
With `CC(=O)OCC(=O)[C@@]1(O)[C@H](C)C[C@H]2[C@@H]3C[C@H](F)C4=CC(=O)C=C[C@]4(C)[C@@]3(F)[C@@H](O)C[C@@]21C` [Flumethasone acetate], the IC50 cell viability is more than 45.8 µM (ICRF193 0 nM) and more than 45.8 µM (ICRF193 200 nM).
Turning to `C[C@@H]1C[C@H]2[C@@H]3C[C@H](F)C4=CC(=O)C=C[C@]4(C)[C@@]3(F)[C@@H](O)C[C@]2(C)[C@@]1(O)C(=O)COC(=O)C(C)(C)C` [Flumethasone pivalate], the IC50 cell viability is more than 45.8 µM (ICRF193 0 nM) and more than 45.8 µM (ICRF193 200 nM).
